Where a SMILES comes first, the peptide text is derived from it. [ ]: non-standard residue; d: D form. Tle = CC(C)(C)[C@H](N)C(=O)O; Ac6c = NC1(C(=O)O)CCCCC1; Sar = CNCC(=O)O
Legend:
Type in all cases: cell-based
human AT1R [1] = target: T1, human AT1R (Homo sapiens, UniProt P30556); test: IP1 accumulation assay (IP1 G-protein assay), human AT1R; settings: for Emax: read-out: Span (relative to hAngII)
T1 sequence (P30556 1-359): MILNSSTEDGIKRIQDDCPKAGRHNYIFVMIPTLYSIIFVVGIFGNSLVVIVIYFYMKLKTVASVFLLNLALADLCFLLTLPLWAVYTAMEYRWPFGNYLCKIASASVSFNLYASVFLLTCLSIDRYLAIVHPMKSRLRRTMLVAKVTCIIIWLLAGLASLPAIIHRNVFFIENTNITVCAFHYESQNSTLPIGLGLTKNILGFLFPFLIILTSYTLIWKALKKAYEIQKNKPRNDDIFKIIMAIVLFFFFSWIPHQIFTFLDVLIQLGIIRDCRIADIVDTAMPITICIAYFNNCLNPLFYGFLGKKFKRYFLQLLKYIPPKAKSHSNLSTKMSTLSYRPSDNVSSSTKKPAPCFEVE
Description: (§1) A secondary measure of G protein coupling efficacy was also performed. IP3 is generated by activation of phospholipase C by Gα-q. IP3 is degraded to IP1, which can be forced to accumulate in cells by blocking degradation with lithium chloride. Thus we measured accumulation of IP1 to determine ligand efficacy for G protein activation.
(§2) IP1 accumulation generated by human and rat angiotensin 2 type 1 receptor (human AT1R and rat AT1aR, respectively) was measured with IP-One Tb kits purchased from Cisbio and used per the manufacturer's instructions. Clonal stably transfected cell lines expressing human AT1TR or rat AT1aR were used for all experiments.
(§3) For assays, 4,000-8,000 cells were seeded per well in 384-well small-volume microplates “HiBase” small-volume plate in volumes of 20 uL and allowed to grow overnight at 37° C. in 5% CO2. Cell growth media was then replaced with stimulation buffer supplied by Cisbio containing 50 mM lithium chloride. […] For agonist detection, peptides were then further diluted in stimulation buffer to add peptide to the cells to reach final concentrations ranging from 100 uM to 1 pM. Following addition of peptides, cells were incubated at 37° C. in 5% CO2 for 30 minutes and then lysed with 4 uL of pre-mixed HTRF IP-One reagents diluted per manufacturer's instructions (Cisbio). Microplates were incubated for 60-90 minutes at room temperature and then time-resolved fluorescence intensities were measured using a PHERAstar Plus microplate reader from BMG Labtech. IP1 accumulation was measured as change in ratio of time-resolved fluorescent intensities measured at 665 nm and 620 nm.

rat AT1aR [2] = target: T2, rat AT1aR (Rattus norvegicus, UniProt P25095); test: IP1 accumulation assay (IP1 G-protein assay), rat AT1aR; settings: for Emax: read-out: Span (relative to hAngII)
T2 sequence (P25095 1-359): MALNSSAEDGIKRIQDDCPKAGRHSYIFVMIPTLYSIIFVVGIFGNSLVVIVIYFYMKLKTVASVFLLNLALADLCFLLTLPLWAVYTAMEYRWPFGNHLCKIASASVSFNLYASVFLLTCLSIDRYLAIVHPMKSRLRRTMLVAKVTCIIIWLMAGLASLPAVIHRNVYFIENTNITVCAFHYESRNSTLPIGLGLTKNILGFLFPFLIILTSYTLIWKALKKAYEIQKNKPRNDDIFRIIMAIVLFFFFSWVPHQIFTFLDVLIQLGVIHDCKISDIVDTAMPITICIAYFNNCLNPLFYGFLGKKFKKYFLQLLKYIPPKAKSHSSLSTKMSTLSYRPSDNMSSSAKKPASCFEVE
Description: as §1, §2, §3

human AT1R [3] = target: T1, human AT1R; test: beta-arrestin2 recruitment assay (PathHunter), human AT1R; settings: for Emax: 1 h, read-out: Span (relative to hAngII)
Description: (§4) The proximal event in β-arrestin function mediated by GPCRs is recruitment to receptors following ligand binding and receptor phosphorylation by GRK's. Thus, the measure of β-arrestin recruitment was used to determine ligand efficacy for β-arrestin function.
(§5) B-arrestin-2 recruitment to the human and rat angiotensin 2 type 1 receptor (human AT1R and rat AT1aR, respectively) was measured with the PathHunter™ μl-arrestin assay (DiscoveRx Corporation, Fremont Calif.). Cells, plasmid(s), and detection reagent(s) were purchased from DiscoveRx, and assays were performed per manufacturer's instructions. Human AT1R and rat AT1aR were cloned into the pCMV-ProLink vector, verified by sequencing, and transfected into PathHunter β-arrestin HEK293 cells. Stably transfected clonal cell lines were selected with Hygromycin and G418. These clonal cell lines were used for all experiments.
(§6) For assays, 4,000-8,000 cells were seeded per well in 384-well microplates “HiBase” small-volume plate in volumes of 20 uL and grown overnight in the incubator (37° C., 5% CO2, saturated humidity). Peptides were dissolved in DMSO to a concentration of 10 mM. Peptides were then further diluted in assay buffer (Hank's balanced salt solution with 20 mM HEPES) to add peptide to the cells to reach final concentrations ranging from 100 μM to 1 pM. Cells were then incubated for 60 minutes at 37° C. in 5% CO2, followed by addition of 2 μL of PathHunter Detection Reagent to each well. The microplates were then incubated at room temperature for 60 minutes, and then luminescence was measured using a PHERAstar Plus microplate reader from BMG Labtech. B-arrestin-2 recruitment to receptors was measured as relative luminescence intensity expressed in arbitrary units.

rat AT1aR [4] = target: T2, rat AT1aR; test: beta-arrestin2 recruitment assay (PathHunter), rat AT1aR; settings: for Emax: 1 h, read-out: Span (relative to hAngII)
Description: as §4, §5, §6

CNCC(=O)N[C@@H](CCCNC(=N)N)C(=O)N[C@H](C(=O)N[C@@H](Cc1ccc(O)cc1)C(=O)NC1(C(=O)N[C@@H](Cc2c[nH]cn2)C(=O)N2CCC[C@H]2C(=O)N[C@H](C(=O)O)C(C)(C)C)CCCCC1)C(C)C [SEQ ID NO: 56, Sar-Arg-Val-Tyr-cyHex-His-Pro-AA02] (H-[Sar]RVY[Ac6c]HP[Tle]-OH)
EC50 (human AT1R [1]; read-out: EC50): > 1.3 nM
Emax (human AT1R [1]): < 103%
EC50 (human AT1R [1]; read-out: pEC50 (converted)): > 0.631 nM
EC50 (rat AT1aR [2]; read-out: EC50): > 0.6 nM
Emax (rat AT1aR [2]): < 104%
EC50 (rat AT1aR [2]; read-out: pEC50 (converted)): > 0.631 nM
Emax (human AT1R [3]): < 101%
EC50 (human AT1R [3]; read-out: EC50): > 3.2 nM
EC50 (human AT1R [3]; read-out: pEC50 (converted)): > 3.16 nM
Emax (rat AT1aR [4]): < 105%
EC50 (rat AT1aR [4]; read-out: EC50): > 3.2 nM
EC50 (rat AT1aR [4]; read-out: pEC50 (converted)): > 3.16 nM

CNCC(=O)N[C@@H](CCCNC(=N)N)C(=O)N[C@H](C(=O)N[C@@H](Cc1ccc(O)cc1)C(=O)NC1(C(=O)N[C@@H](Cc2c[nH]cn2)C(=O)N2CCC[C@H]2C(=O)N[C@@H](CO)C(=O)O)CCCCC1)C(C)C [SEQ ID NO: 15, Sar-Arg-Val-Tyr-cyHex-His-Pro-Ser] (H-[Sar]RVY[Ac6c]HPS-OH)
EC50 (human AT1R [1]; read-out: EC50): > 1.3 nM
EC50 (human AT1R [1]; read-out: pEC50 (converted)): > 0.631 nM
EC50 (rat AT1aR [2]; read-out: EC50): > 0.6 nM
Emax (rat AT1aR [2]): < 104%
EC50 (rat AT1aR [2]; read-out: pEC50 (converted)): > 0.631 nM
Emax (human AT1R [3]): < 101%
EC50 (human AT1R [3]; read-out: EC50): > 3.2 nM
EC50 (human AT1R [3]; read-out: pEC50 (converted)): > 3.16 nM
Emax (rat AT1aR [4]): < 105%
EC50 (rat AT1aR [4]; read-out: EC50): > 3.2 nM
EC50 (rat AT1aR [4]; read-out: pEC50 (converted)): > 3.16 nM

CNCC(=O)N[C@@H](CCCNC(=N)N)C(=O)N[C@H](C(=O)N[C@@H](Cc1ccc(O)cc1)C(=O)N1CCC[C@H]1C(=O)N[C@@H](Cc1c[nH]cn1)C(=O)N1CCC[C@H]1C(=O)N[C@@H](C)C(=O)O)C(C)C [SEQ ID NO: 1, Sar-Arg-Val-Tyr-Pro-His-Pro-Ala] (H-[Sar]RVYPHPA-OH)
EC50 (human AT1R [1]; read-out: EC50): > 10000 nM
EC50 (human AT1R [1]; read-out: pEC50 (converted)): > 0.631 nM
EC50 (rat AT1aR [2]; read-out: EC50): > 0.6 nM
Emax (rat AT1aR [2]): < 104%
EC50 (rat AT1aR [2]; read-out: pEC50 (converted)): > 0.631 nM
Emax (human AT1R [3]): < 101%
EC50 (human AT1R [3]; read-out: EC50): > 3.2 nM
EC50 (human AT1R [3]; read-out: pEC50 (converted)): > 3.16 nM
Emax (rat AT1aR [4]): < 105%
EC50 (rat AT1aR [4]; read-out: EC50): > 3.2 nM
EC50 (rat AT1aR [4]; read-out: pEC50 (converted)): > 3.16 nM

CNCC(=O)N[C@@H](CCCNC(=N)N)C(=O)N[C@H](C(=O)N[C@@H](Cc1ccc(O)cc1)C(=O)NC1(C(=O)N[C@@H](Cc2c[nH]cn2)C(=O)N2CCC[C@H]2C(=O)N[C@@H](CCC(N)=O)C(=O)O)CCCCC1)C(C)C [SEQ ID NO: 38, Sar-Arg-Val-Tyr-cyHex-His-Pro-Gln] (H-[Sar]RVY[Ac6c]HPQ-OH)
EC50 (human AT1R [1]; read-out: EC50): > 1.3 nM
Emax (human AT1R [1]): < 103%
EC50 (human AT1R [1]; read-out: pEC50 (converted)): > 0.631 nM
EC50 (rat AT1aR [2]; read-out: EC50): > 0.6 nM
Emax (rat AT1aR [2]): < 104%
EC50 (rat AT1aR [2]; read-out: pEC50 (converted)): > 0.631 nM
Emax (human AT1R [3]): < 101%
EC50 (human AT1R [3]; read-out: EC50): > 3.2 nM
EC50 (human AT1R [3]; read-out: pEC50 (converted)): > 3.16 nM
Emax (rat AT1aR [4]): < 105%
EC50 (rat AT1aR [4]; read-out: EC50): > 3.2 nM
EC50 (rat AT1aR [4]; read-out: pEC50 (converted)): > 3.16 nM

CNCC(=O)N[C@@H](CCCNC(=N)N)C(=O)N[C@H](C(=O)N[C@@H](Cc1ccc(O)cc1)C(=O)NC1(C(=O)N[C@@H](Cc2c[nH]cn2)C(=O)N2CCC[C@H]2C(=O)N[C@H](C)C(=O)O)CCCCC1)C(C)C [SEQ ID NO: 57, Sar-Arg-Val-Tyr-cyHex-His-Pro-D-Ala]
EC50 (nM) (human AT1R [1]): Inactive
pEC50 (human AT1R [1]): Inactive
EC50 (nM) (rat AT1aR [2]): Inactive
pEC50 (rat AT1aR [2]): Inactive
Emax (human AT1R [3]): < 101%
EC50 (human AT1R [3]; read-out: EC50): > 3.2 nM
EC50 (human AT1R [3]; read-out: pEC50 (converted)): > 3.16 nM
Emax (rat AT1aR [4]): < 105%
EC50 (rat AT1aR [4]; read-out: EC50): > 3.2 nM
EC50 (rat AT1aR [4]; read-out: pEC50 (converted)): > 3.16 nM

CNCC(=O)N[C@@H](CCCNC(=N)N)C(=O)N[C@H](C(=O)N[C@@H](Cc1ccc(O)cc1)C(=O)NC1(C(=O)N[C@@H](Cc2c[nH]cn2)C(=O)N2CCC[C@H]2C(=O)N[C@H](C(=O)O)[C@@H](C)O)CCCCC1)C(C)C [SEQ ID NO: 14, Sar-Arg-Val-Tyr-cyHex-His-Pro-Thr] (H-[Sar]RVY[Ac6c]HPT-OH)
EC50 (human AT1R [1]; read-out: EC50): > 1.3 nM
EC50 (human AT1R [1]; read-out: pEC50 (converted)): > 0.631 nM
EC50 (rat AT1aR [2]; read-out: EC50): > 0.6 nM
EC50 (rat AT1aR [2]; read-out: pEC50 (converted)): > 0.631 nM
Emax (human AT1R [3]): < 101%
EC50 (human AT1R [3]; read-out: EC50): > 3.2 nM
EC50 (human AT1R [3]; read-out: pEC50 (converted)): > 3.16 nM
Emax (rat AT1aR [4]): < 105%
EC50 (rat AT1aR [4]; read-out: EC50): > 3.2 nM
EC50 (rat AT1aR [4]; read-out: pEC50 (converted)): > 3.16 nM

Reference: patent publication US8946142B2, “Beta-arrestin effectors and compositions and methods of use thereof” (Trevena, Inc., priority 2012, dated 2015)
